Source: paper PMC8012331, “Drug-induced hepatic steatosis in absence of severe mitochondrial dysfunction in HepaRG cells: proof of multiple mechanism-based toxicity” (Cell Biology and Toxicology, 2020)
“And” between values parts separate entries of the source, which are not always exact repeats. Equal values may be shown once.

Experiments:
apoB secretion = assay: apoB level in culture medium (ELISA), HepaRG cells; assay type: cell-based, human; settings: 4 days; for Effect on apoB secretion: culture medium, vs control
Procedure: (§1) Experiments were carried out on passages 9 to 16. […] DPEN was dissolved in water.
Twenty-four hours after the last treatment, cell supernatants were removed and stored at − 80 °C until use for apolipoprotein measurement. ApoB level was measured using the Human Apolipoprotein B ELISA^pro kit from Mabtech (Nacka Strand, Sweden), according to the manufacturer’s instructions. Briefly, 50 μL of samples were diluted 2× in Apo ELISA buffer before a 2-h incubation in the precoated strip plates provided in the kit. The plates were washed and incubated 1 h with the biotinylated monoclonal anti-human apoB (LDL-11-biotin) antibody. The plates were then washed and incubated 1 h with a streptavidin–horseradish peroxidase conjugated antibody. After another washing, 3,3′,5,5′-tetramethylbenzidine (TMB) was used as substrate for 15 min before adding a stop solution. Absorbance at 450 nm was then measured using a POLARstar Omega microplate reader (BMG Labtech, Ortenberg). ApoB level was calculated utilizing a four-parameter standard curve, and normalized to the total cellular protein content and expressed in comparison to control cells.

ATP citrate lyase (ACLY) = assay: RT-qPCR ACLY mRNA in HepaRG cells; assay type: cell-based, human; settings: 4 days, vs control
Procedure: (§2) Total RNA was extracted with the Nucleospin RNA isolation system purchased from Macherey-Nagel (Düren, Germany), which included a DNase treatment step. Quantification of isolated RNAs was assessed using a Nanodrop 1000 (Thermo Fisher Scientific, Waltham, MA). RNAs were reverse-transcribed into cDNAs using the High-Capacity cDNA Reverse Transcription Kit purchased from Applied Biosystems (Woolston, UK). Gene expression was assessed by real-time quantitative PCR analysis (RT-qPCR) using SYBR Green PCR Master Mix (Applied Biosystems) and a 384-well QuantStudio™ 7 Flex Real-Time PCR System (Thermo Fisher Scientific). Sequences of the primers used to measure gene expression are presented in Supplementary Table 3. Expression of GAPDH was chosen as reference and the 2^−ΔΔCt calculation method was used to express the relative expression of each selected gene.

[1] = tested on: fatty acid synthase (FASN); assay: RT-qPCR FASN mRNA in HepaRG cells; assay type: cell-based, human; settings: 4 days, vs control
Procedure: as §2

[2] = patients, ref given per drug, cited from earlier work
[3] = tested on: acetyl-CoA carboxylase alpha (ACACA); assay: RT-qPCR ACACA mRNA in HepaRG cells; assay type: cell-based, human; settings: 4 days, vs control
Procedure: as §2

[4] = tested on: de novo lipogenesis (DNL); assay: DNL from [2-14C]acetic acid in HepaRG cells; assay type: cell-based, human; settings: 4 days, vs control
Procedure: as §1
DNL was assessed by measuring newly synthesized radiolabeled lipids from [2-^14C]acetic acid, using a protocol adapted from Byrne et al. ([2014]). Briefly, culture medium was removed and cells were washed with warm PBS. Next, cells were incubated for 3 h with phenol red-free William’s E medium containing 1% fatty acid-free BSA, [2-^14C]acetic acid (1850 Bq per well, corresponding to 19.4 pM) and 50 μM cold acetic acid. Medium was then gently removed and cells were washed with warm PBS before adding a mix of hexane/isopropanol (3:2; v/v). Cell culture plates were sealed and incubated for 1 h at room temperature for lipid extraction. After transfer of the plate content in 200-μL microtubes, hexane and PBS were added to have a hexane/isopropanol/PBS ratio of 6:2:3 (v/v/v). Microtubes were then centrifuged at 1000×g for 5 min and radiolabeled lipids were counted in the upper phase with a Tri-Carb 4910TR liquid scintillation counter (PerkinElmer). Results were normalized to total protein content and expressed in comparison to control cells.

HepaRG cells [5] = assay: Neutral lipids with Nile red in HepaRG cells; settings: 4 days; for Accumulation of neutral lipids (steatosis): selected concentrations (ATP loss < 30%, not above 100 × Cmax), vs control
Procedure: (§3) Briefly, HepaRG cells were seeded in 96-well plates at a density of 2.6 × 10^4 cells/cm^2 and were first incubated in William’s E medium supplemented with 10% FBS (50% FBS from Eurobio and 50% FBS from GE Healthcare), 100 U/mL penicillin, 100 μg/mL streptomycin, 2 mM glutamine, 5 μg/mL insulin, and 50 μM hydrocortisone hemisuccinate. […] During this 1-month period, the culture medium was renewed three times a week. […] HepaRG cells were next cultured in the same FBS/DMSO conditions and incubated for 4 days with each drug at different concentrations. Culture medium was renewed every day and all investigations were performed after 96 h (i.e., 24 h after the fourth treatment). These investigations were mostly performed in 96-well plates except for western blot analysis, for which 6-well plates were used. Experiments were carried out on passages 9 to 16. All drugs (except DPEN), etomoxir, lomitapide, tunicamycin, thapsigargin, and TUDCA were dissolved in DMSO. DPEN was dissolved in water.
Cells were then incubated with PBS containing 0.1 μg/mL Nile red for 30 min and washed once. […] For each well, four pictures were taken at a magnification of × 20 and analyzed with Columbus software (PerkinElmer) for quantification. These pictures were always taken in four different areas around the center of each well, and these areas were the same from one well to another, as programmed by the Columbus software. This software was also designed to count only living cells after exclusion of dying cells harboring nuclei with abnormal shape or altered Hoechst intensity. […] Neutral lipids were then normalized per number of nuclei and expressed relative to control cells. Examples of images used for neutral lipid quantification are shown in Supplementary Fig. 2.

ERN1 (IRE1α) = assay: RT-qPCR ERN1 mRNA in HepaRG cells; assay type: cell-based, human; settings: 4 days, vs control
Procedure: as §2

[6] = treated patients; ref Schulz M et al., Crit Care 2012 ;16(4):R136; listed as Sulindac (SUL); cited from earlier work
HepaRG cells [7] = assay: Cellular ATP level (CellTiter-Glo) in HepaRG cells; assay type: cell-based, human; settings: 4 days, vs controls
Procedure: Cellular ATP level was measured using the CellTiter-Glo® Luminescent Cell Viability assay purchased from Promega (Charbonnières, France), according to the manufacturer’s instructions. Briefly, control and treated HepaRG cells were first washed with warm PBS and kept for 30 min at room temperature in phenol red-free William’s E medium. Cells were next incubated with the CellTiter-Glo® reagent for 10 min at room temperature. Cells were then transferred in opaque-walled multiwell plates and the luminescent signal was quantified using a POLARstar Omega microplate reader (BMG Labtech, Ortenberg, Germany). Results were expressed in comparison to control cells.

apoC3 secretion = assay: apoC3 level in culture medium (HTRF), HepaRG cells; assay type: cell-based, human; settings: 4 days, culture medium, vs control
Procedure: as §3
Apolipoprotein C3 (apoC3) level was measured using the Human Apolipoprotein C3 kit from Cisbio Bioassays (Codolet, France), according to the manufacturer’s instructions. Briefly, 10 μL of supernatants was incubated with two different specific anti-human apoC3 antibodies, one donor and one acceptor. The detection principle of apoC3 is based on HTRF® (Homogeneous Time Resolved Fluorescence), a time-resolved FRET (Förster Resonance Energy Transfer) technology. After 2 h of incubation, light emission was measured with the Infinite F Nano+ microplate reader (Tecan, Männedorf, Switzerland). ApoC3 level was calculated utilizing standard curve, based on the ratio of A665 nm/A615 nm, and normalized to the total cellular protein content. Results were expressed in comparison to control cells.

[8] = Maximum plasma concentration (Cmax) in patients; assay type: in vivo, human; settings: worked out from cited Cmax in patients
HepaRG cells [9] = assay: Number of nuclei (Hoechst 33342) in HepaRG cells; assay type: cell-based, human; settings: HepaRG cells treated with TUDCA alone
apolipoprotein B (APOB) = assay: RT-qPCR APOB mRNA in HepaRG cells; assay type: cell-based, human; settings: 4 days
Procedure: as §2

[10] = tested on: microsomal triglyceride transfer protein (MTTP); assay: RT-qPCR MTTP mRNA in HepaRG cells; assay type: cell-based, human; settings: 4 days, vs control
Procedure: as §2

[11] = tested on: mitochondrial fatty acid oxidation (mtFAO); assay: mtFAO with [U-14C]palmitic acid in HepaRG cells; assay type: cell-based, human; settings: 4 days, vs control
Procedure: as §1
Results were normalized to total protein content determined using the Pierce BCA assay kit from Thermo Fischer Scientific (Waltham, MA). Results were expressed in comparison to control cells.

HSPA5 (BIP) = assay: RT-qPCR HSPA5 mRNA in HepaRG cells; assay type: cell-based, human; settings: 4 days, vs control
Procedure: as §2

[12] = tested on: apolipoprotein C3 (APOC3); assay: RT-qPCR APOC3 mRNA in HepaRG cells; assay type: cell-based, human; settings: 4 days, vs control
Procedure: as §2

[13] = tested on: prolyl 4-hydroxylase subunit beta (P4HB, also known as PDI); assay: RT-qPCR P4HB mRNA in HepaRG cells; assay type: cell-based, human; settings: 4 days, vs control
Procedure: as §2

DDIT3 (CHOP) = assay: RT-qPCR DDIT3 mRNA in HepaRG cells; assay type: cell-based, human; settings: 4 days, vs control
Procedure: as §2

[14] = tested on: angiopoietin-like 3 (ANGPTL3); assay: RT-qPCR ANGPTL3 mRNA in HepaRG cells; assay type: cell-based, human; settings: 4 days, vs control
Procedure: as §2

[15] = TUDCA 2 or 4 mM with 750 μM ALLO, 300 μM INDO, 300 μM RIF or 10 μM tunicamycin

Question: Which “Effect on apoB secretion” value (apoB secretion) does the source give for CC1=C(CC(=O)O)c2cc(F)ccc2/C1=C\c1ccc([S+](C)[O-])cc1 (stereo not drawn) [SUL, sulindac] here?
Answer: reduced the secretion

Question: And the “ACLY mRNA level” value (ATP citrate lyase (ACLY))?
Answer: augmented mRNA abundance

Question: What about the “FASN mRNA level” value [1] of the same compound?
Answer: augmented mRNA abundance

Question: What about the “Maximum plasma concentration (Cmax) in patients” value [2] of the same compound?
Answer: ≤ 11400 ng/mL

Question: What about the Cmax ([2]; read-out: Maximum plasma concentration (Cmax) in patients) of the same compound?
Answer: ≤ 32 µM

Question: And the “ACACA mRNA level” value [3]?
Answer: augmented mRNA abundance

Question: And the “Effect on DNL” value [4]?
Answer: increased DNL

Question: And the “Accumulation of neutral lipids (steatosis)” value (HepaRG cells [5])?
Answer: significant accumulation of neutral lipids

Question: What about the “ERN1 (IRE1α) mRNA level” value (ERN1 (IRE1α)) of the same compound?
Answer: enhanced IRE1α mRNA level

Question: What about the “Therapeutic blood (or plasma) concentration in patients” value [6] of the same compound?
Answer: 1 - 5 mg/L and 2.8 - 14 µM

Question: And the “Loss of cellular ATP relative to the maximum concentration selected for the study” value (HepaRG cells [7])?
Answer: 1000 µM (loss of cellular ATP above 30% of the controls for higher concentrations, as shown in Supp. fig 1)

Question: What about the “Effect on apoC3 secretion” value (apoC3 secretion) of the same compound?
Answer: reduced the secretion

Question: What about the “Concentration corresponding to 100xCmax” value [8] of the same compound?
Answer: 3200 µM

Question: Which results are given for C[C@H](CCC(=O)NCCS(=O)(=O)O)[C@H]1CC[C@H]2[C@@H]3[C@@H](O)C[C@@H]4C[C@H](O)CC[C@]4(C)[C@H]3CC[C@]12C [TUDCA, tauroursodeoxycholic acid]?
Answer: Increase in the number of nuclei (HepaRG cells [9]): 38%; Effect on apoB secretion in cells cotreated with ALLO, INDO, RIF or tunicamycin (apoB secretion; [15]): improved apoB secretion; Effect on neutral lipid accumulation induced by ALLO, INDO, RIF or tunicamycin (HepaRG cells [5]; [15]): alleviate neutral lipid accumulation; Effect on APOB mRNA level in cells cotreated with ALLO, INDO, RIF or tunicamycin (apolipoprotein B (APOB); [15]): higher apoB mRNA level

Question: For C/C=C(/C)C(=O)O[C@H]1C(C)=C2[C@H]([C@@H]1OC(=O)CCCCCCC)[C@@](C)(OC(C)=O)C[C@H](OC(=O)CCC)[C@@]1(O)[C@H]2OC(=O)[C@@]1(C)O [thapsigargin], which “Effect on apoB secretion” value (apoB secretion) is on record?
Answer: reduced secretion of apoB

Question: And the “MTTP mRNA level” value [10]?
Answer: reduced the mRNA level

Question: And the “Effect on mtFAO” value [11]?
Answer: increased mtFAO

Question: What about the “Effect on DNL” value [4] of the same compound?
Answer: strongly reduced DNL

Question: And the “HSPA5 (BIP) mRNA level” value (HSPA5 (BIP))?
Answer: augmented the mRNA level

Question: What about the “ERN1 (IRE1α) mRNA level” value (ERN1 (IRE1α)) of the same compound?
Answer: augmented the mRNA level

Question: And the “APOB mRNA level” value (apolipoprotein B (APOB); vs control)?
Answer: also reduced APOB mRNA abundance

Question: What about the “APOC3 mRNA level” value [12] of the same compound?
Answer: reduced the mRNA level

Question: And the “P4HB (PDI) mRNA level” value [13]?
Answer: induced

Question: And the “DDIT3 (CHOP) mRNA level” value (DDIT3 (CHOP))?
Answer: augmented the mRNA level

Question: What about the “ANGPTL3 mRNA level” value [14] of the same compound?
Answer: reduced the mRNA level

Question: Which “Effect on apoB secretion” value (apoB secretion) does the source give for tunicamycin here?
Answer: reduced secretion of apoB

Question: What about the “MTTP mRNA level” value [10] of the same compound?
Answer: reduced the mRNA level

Question: And the “Effect on mtFAO” value [11]?
Answer: increased mtFAO

Question: And the “Effect on DNL” value [4]?
Answer: strongly reduced DNL

Question: What about the “HSPA5 (BIP) mRNA level” value (HSPA5 (BIP)) of the same compound?
Answer: augmented the mRNA level

Question: And the “Accumulation of neutral lipids (steatosis)” value (HepaRG cells [5])?
Answer: increased neutral lipids

Question: What about the “ERN1 (IRE1α) mRNA level” value (ERN1 (IRE1α)) of the same compound?
Answer: augmented the mRNA level

Question: What about the “APOC3 mRNA level” value [12] of the same compound?
Answer: reduced the mRNA level

Question: And the “P4HB (PDI) mRNA level” value [13]?
Answer: induced

Question: And the “DDIT3 (CHOP) mRNA level” value (DDIT3 (CHOP))?
Answer: augmented the mRNA level

Question: And the “ANGPTL3 mRNA level” value [14]?
Answer: reduced the mRNA level
